Results taken from US5418150A, “Method of cleaving DNA” (priority 1993, dated 1995).
Read-outs that look alike come from different tables or passages of the source.

Assays:
Nae I [1] = target: T1, Nae I (Lentzea aerocolonigenes, UniProt P50187); test: Activation of Nae I cleavage of M13mp18 RFI DNA; assay type: biochemical, Nocardia aerocolonigenes; design: key to Activation of Nae I cleavage of M13mp18 RF1 DNA: ++++: full activation; ++: about 50% activation; -: no activation
T1 sequence (P50187 1-317): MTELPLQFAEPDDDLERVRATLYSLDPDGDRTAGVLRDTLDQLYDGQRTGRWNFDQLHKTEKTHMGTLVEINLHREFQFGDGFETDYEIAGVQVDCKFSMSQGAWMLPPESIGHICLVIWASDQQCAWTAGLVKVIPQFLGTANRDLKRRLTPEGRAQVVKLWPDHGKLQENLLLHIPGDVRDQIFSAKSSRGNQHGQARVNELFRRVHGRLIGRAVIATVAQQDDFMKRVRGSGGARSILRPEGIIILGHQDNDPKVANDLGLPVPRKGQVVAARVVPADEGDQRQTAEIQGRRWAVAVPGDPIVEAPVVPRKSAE

Nae I [2] = target: T1, Nae I; conditions: 2 mM spermidine, SV40 DNA 2.9 nM, 1.1 units Nae I, 1 hour 37° C.
Nae I [3] = target: T1, Nae I; test: biochemical; conditions: 1 h, read-out: Increase in Nae I cleavage of SV40 slow site

NCCCCNCCCN [spermidine]
Spermidine concentration needed to mimic the effect of 1 mM at low salt (Nae I [1]; 1 mM Mg2+ and 50 mM Na+): 6 mM
Spermidine concentration at which the switch occurs (inhibition in presence of activating DNA) (Nae I [1]; 50 mM NaCl and 10 mM MgCl2): 8 mM
Spermidine concentration at which the switch occurs (inhibition in presence of activating DNA) (Nae I [1]; low salt concentration): 1 mM
Effect on cleavage of resistant Nae I sites such as in M13mp18 DNA (Nae I [1]; spermidine at 1 mM, low salt): greatly activated
Spermidine concentration that switches on Nae I cleavage of resistant sites (Nae I [1]; spermidine by itself, low salt conditions): about 1 mM
Nae I cleavage of SV40 slow site (Nae I [2]): 17%
fold induction at 2000 µM (Nae I [3]): 40

CTGGTGGTGGGCGCCGGC (chemistry not given here) [Oligonucleotide duplex 5]
Activation of Nae I cleavage of M13mp18 RF1 DNA (Nae I [1]): -

GCCGGC (chemistry not given here) [Oligonucleotide duplex 7]
Activation of Nae I cleavage of M13mp18 RF1 DNA (Nae I [1]; compared to cleavage caused by an equal concentration of pBR322 Nae I sites): -

GCCGGCGGTGTGGGCAGCTGGTG (chemistry not given here) [Oligonucleotide duplex 6]
Activation of Nae I cleavage of M13mp18 RF1 DNA (Nae I [1]): -

GCGCCGGCGG (chemistry not given here) [Oligonucleotide duplex 4]
Activation of Nae I cleavage of M13mp18 RF1 DNA (Nae I [1]): -

GGGCGCCGGCGGTG (chemistry not given here) [Oligonucleotide duplex 3]
Activation of Nae I cleavage of M13mp18 RF1 DNA (Nae I [1]): ++ (key: ++++: full activation; ++: about 50% activation; -: no activation)

GGGTGCCGGCAGGG (chemistry not given here) [SEQ ID NO: 8]
Activation as activating sequence for Nae I (Nae I [1]; procedures of Example 1): 100%

TGGTGGGCGCCGGCGGTGTGGGCA (TTGGTGGGCGCCGGCGGTGTGGGCA; chemistry not given here) [Oligonucleotide duplex 2]
Activation of Nae I cleavage of M13mp18 RF1 DNA (Nae I [1]): ++++
